Reference: US12415786B2, “Substituted 2-heteroarylaminobenzenes and the salts thereof and their use as herbicidal agents” (Bayer Aktiengesellschaft, priority 2019, dated 2025)

Legend:
Format in all cases: in vivo
Amaranthus retroflexus [1] = test: Herbicidal post-emergence action (greenhouse pots), AMARE; details: 1280 g/ha, visual rating about 3 weeks after treatment vs untreated controls
Source text: (§1) In the examples and tables below, the following abbreviations are used: • Undesired Plants/Weeds: • ABUTH: Abutilon theophrasti • AGSTE: Agrostis tenuis • AMARE Amaranthus retroflexus • ECHCG: Echinochloa crus-galli • LOLRI: Lolium rigidum • MATIN: Matricaria inodora • POAAN: Poa annua • SETVI: Setaria viridis • STEME: Stellaria media A. Herbicidal Early Post-Emergence Action Seeds of mono- and dicotyledonous weed plants were placed in plastic pots in sandy loam soil (doubly sown with in each case one species of mono- or dicotyledonous weed plants per pot), covered with soil and cultivated in a greenhouse under controlled growth conditions. 2 to 3 weeks after sowing, the test plants were treated at the one-leaf stage. The compounds of the invention, formulated in the form of wettable powders (WP) or as emulsion concentrates (EC), were applied onto the green parts of the plants as aqueous suspension or emulsion with addition of 0.5% additive at a water application rate of 600 liters per hectare (converted). After the test plants had been kept in the greenhouse under optimum growth conditions for about 3 weeks, the activity of the preparations was rated visually in comparison to untreated controls. For example, 100% activity=the plants have died, 0% activity=like untreated control plants. Tables B1-B8 below show the effects of selected compounds of the general formula (I) according to Table 1 above on various harmful plants and an application rate corresponding to 1280 g/ha, which were obtained by the experimental procedure mentioned above.

Setaria viridis = test: Herbicidal pre-emergence action (greenhouse pots), SETVI; details: 1280 g/ha, visual scoring after about 3 weeks vs untreated controls
Source text: (§2) In the examples and tables below, the following abbreviations are used: • Undesired Plants/Weeds: • ABUTH: Abutilon theophrasti • AGSTE: Agrostis tenuis • AMARE Amaranthus retroflexus • ECHCG: Echinochloa crus-galli • LOLRI: Lolium rigidum • MATIN: Matricaria inodora • POAAN: Poa annua • SETVI: Setaria viridis • STEME: Stellaria media A. Herbicidal Early Post-Emergence Action Seeds of mono- and dicotyledonous weed plants were placed in plastic pots in sandy loam soil (doubly sown with one species each of mono- or dicotyledonous weed plants per pot) and covered with soil. The compounds of the invention, formulated in the form of wettable powders (WP) or as emulsion concentrates (EC), were then applied onto the surface of the covering soil as aqueous suspension or emulsion with addition of 0.5% additive at a water application rate of 600 liters per hectare (converted). After the treatment, the pots were placed in a greenhouse and kept under good growth conditions for the test plants. After about 3 weeks, the effect of the preparations was scored visually in comparison with untreated controls as percentages. For example, 100% activity=the plants have died, 0% activity=like untreated control plants. Tables C1-C8 below show the effects of selected compounds of the general formula (I) according to Table 1 above on various harmful plants and an application rate corresponding to 1280 g/ha, which were obtained by the experimental procedure mentioned above.

Stellaria media [2] = test: Herbicidal pre-emergence action (greenhouse pots), STEME; details: 1280 g/ha, visual scoring after about 3 weeks vs untreated controls
Source text: as §2

Echinochloa crus-galli [3] = test: Herbicidal pre-emergence action (greenhouse pots), ECHCG; details: 1280 g/ha, visual scoring after about 3 weeks vs untreated controls
Source text: as §2

Poa annua [4] = test: Herbicidal pre-emergence action (greenhouse pots), POAAN; details: 1280 g/ha, visual scoring after about 3 weeks vs untreated controls
Source text: as §2

Amaranthus retroflexus [5] = test: Herbicidal pre-emergence action (greenhouse pots), AMARE; details: 1280 g/ha, visual scoring after about 3 weeks vs untreated controls
Source text: as §2

Abutilon theophrasti = test: Herbicidal post-emergence action (greenhouse pots), ABUTH; details: 1280 g/ha, visual rating about 3 weeks after treatment vs untreated controls
Source text: as §1

Agrostis tenuis = test: Herbicidal early post-emergence action (96-well microtiter plates), AGSTE; details: 1900 g/ha, scored 9 to 12 days after treatment, 100% = plants have died, 0% = like untreated control plants
Source text: (§3) In the examples and tables below, the following abbreviations are used: • Undesired Plants/Weeds: • ABUTH: Abutilon theophrasti • AGSTE: Agrostis tenuis • AMARE Amaranthus retroflexus • ECHCG: Echinochloa crus-galli • LOLRI: Lolium rigidum • MATIN: Matricaria inodora • POAAN: Poa annua • SETVI: Setaria viridis • STEME: Stellaria media A. Herbicidal Early Post-Emergence Action Seeds of monocotyledonous and dicotyledonous weed plants were placed in 96-well microtiter plates in quartz sand and grown in a climatized chamber under controlled growth conditions. 5 to 7 days after sowing, the test plants were treated at the cotyledon stage. The compounds according to the invention, formulated in the form of emulsion concentrates (EC), were applied with a water application rate of the equivalent of 2200 liters per hectare. After the test plants had been left to stand in the climatized chamber for 9 to 12 days under optimum growth conditions, the effect of the preparations was scored visually in comparison to untreated controls. Here, for example, 100% activity=the plants have died, 0% activity=like untreated control plants. Tables A1 to A2 below show the effects of selected compounds of the general formula (I) according to Table 1 above on various harmful plants and an application rate corresponding to 1900 g/ha, which were obtained by the experimental procedure mentioned above.

Poa annua [6] = test: Herbicidal early post-emergence action (96-well microtiter plates), POAAN; details: 1900 g/ha, scored 9 to 12 days after treatment, 100% = plants have died, 0% = like untreated control plants
Source text: as §3

Poa annua [7] = test: Herbicidal post-emergence action (greenhouse pots), POAAN; details: 1280 g/ha, visual rating about 3 weeks after treatment vs untreated controls
Source text: as §1

Matricaria inodora = test: Herbicidal pre-emergence action (greenhouse pots), MATIN; details: 1280 g/ha, visual scoring after about 3 weeks vs untreated controls
Source text: as §2

Stellaria media [8] = test: Herbicidal post-emergence action (greenhouse pots), STEME; details: 1280 g/ha, visual rating about 3 weeks after treatment vs untreated controls
Source text: as §1

Echinochloa crus-galli [9] = test: Herbicidal post-emergence action (greenhouse pots), ECHCG; details: 1280 g/ha, rated after about 3 weeks, 100% = plants have died, 0% = like untreated control plants
Source text: as §1

Structure (SMILES) | herbicidal activity AMARE (Amaranthus retroflexus [1]) [%] | herbicidal activity SETVI (Setaria viridis) [%] | herbicidal activity STEME (Stellaria media [2]) [%] | herbicidal activity ECHCG (Echinochloa crus-galli [3]) [%] | herbicidal activity POAAN (Poa annua [4]) [%] | herbicidal activity AMARE (Amaranthus retroflexus [5]) [%] | herbicidal activity ABUTH (Abutilon theophrasti) [%] | AGSTE (herbicidal activity, scored visually in comparison to untreated controls) (Agrostis tenuis) [%] | POAAN (herbicidal activity, scored visually in comparison to untreated controls) (Poa annua [6]) [%] | herbicidal activity POAAN (Poa annua [7]) [%] | herbicidal activity MATIN (Matricaria inodora) [%] | herbicidal activity STEME (Stellaria media [8]) [%] | ECHCG (herbicidal activity, rated visually in comparison to untreated controls) (Echinochloa crus-galli [9]) [%]
N#Cc1cccc(Nc2ncc(Cl)cn2)c1Oc1cccc(F)c1 [Example 1-285] | 100 | 100 | 100 | 90 | 100 | 100 |  |  |  |  |  |  | 
N#Cc1cccc(Nc2ncc(Cl)cn2)c1Oc1ccc(F)cc1Cl [Example 1-293] | 100 | 100 | 90 |  |  | 100 | 90 | 80 | 80 |  |  |  | 
Cc1cccc(Nc2ncc(Cl)cn2)c1Oc1ccc(F)cc1 [Example 1-239] | 100 |  |  |  | 100 |  |  | 80 | 100 | 100 | 100 | 100 | 
N#Cc1cccc(Nc2ncccn2)c1Oc1cccc(F)c1 [Example 1-247] | 100 | 100 | 100 | 90 | 100 | 100 |  | 80 |  |  |  |  | 
Fc1ccc(Oc2ccccc2Nc2ncc(Cl)cn2)cc1 [Example 1-337] | 90 |  |  |  | 100 | 90 | 90 | 100 | 100 |  |  |  | 90
N#Cc1cccc(Nc2ncccn2)c1Oc1ccc(C(F)(F)F)cc1 [Example 1-260] | 100 | 100 | 100 | 90 | 90 | 100 |  | 100 | 100 |  | 90 | 90 | 
N#Cc1cccc(Nc2ncc(OC(F)F)cn2)c1Oc1ccc(F)cc1 [Example 1-314] | 100 | 100 |  |  |  |  | 90 | 100 | 80 |  |  | 100 | 
N#Cc1cccc(Nc2ccc(F)cn2)c1Oc1ccc(F)c(F)c1 [Example 1-111] | 100 | 90 | 100 |  |  | 100 | 90 | 100 | 100 |  | 90 | 90 | 
COc1cnc(Nc2cccc(C#N)c2Oc2ccc(F)cc2)nc1 [Example 1-312] | 100 | 90 | 100 |  | 100 | 100 | 100 | 100 | 100 |  | 100 | 100 | 
O=[N+]([O-])c1cccc(Nc2ncc(Cl)cn2)c1Oc1ccc(F)cc1 [Example 1-350] | 100 |  |  |  | 100 | 100 |  | 80 | 100 | 100 | 100 |  | 
Clc1cnc(Nc2cccc(Cl)c2Oc2ccccc2)nc1 [Example 1-340] | 100 | 100 | 90 |  | 100 | 100 | 90 | 80 | 100 |  |  | 100 | 
Fc1ccc(Oc2c(I)cccc2Nc2ncc(Cl)cn2)cc1 [Example 1-372] |  | 100 |  |  |  | 100 |  | 100 | 100 | 100 |  | 90 | 
CC(=O)N(C)c1cccc(Nc2ncc(Cl)cn2)c1Oc1ccc(F)cc1 [Example 1-369] | 100 | 100 | 100 |  |  | 100 |  | 80 | 80 | 100 |  |  | 
